Measured values published in ChEMBL document CHEMBL3045063, “Synthesis and cytostatic evaluation of some 2-(5-substituted-2-oxoindolin-3-ylidene)-N-substituted hydrazine carbothioamide” (Med Chem Res, 2011).

Legend:
Format in all cases: functional, cell-based
[1] = tested on: CCRF-CEM; experiment: Cytostatic activity against Homo sapiens (human) CEM cells after 72 hr
[2] = tested on: L1210; experiment: Cytostatic activity against Mus musculus (mouse) L1210 cells after 48 hr; settings: L1210, 48 h
[3] = tested on: MOLT-4; experiment: Cytostatic activity against Homo sapiens (human) Molt4/C8 cells after 72 hr; settings: MOLT-4, 72 h

IC50 [1] [µM]	IC50 [2] [µM]	IC50 [3] [µM]	SMILES
132	190	57	Cc1ccc(NC(=S)N/N=C2\C(=O)N(Cc3ccc(F)cc3)c3ccc(Br)cc32)cc1
61	88	29	O=C1Nc2ccc(Br)cc2/C1=N/NC(=S)Nc1ccc(Cl)cc1
6.8	9.6	4.9	Cc1ccc(NC(=S)N/N=C2\C(=O)Nc3ccc(Br)cc32)cc1
56	154	47	O=C1/C(=N\NC(=S)Nc2ccc(Cl)cc2)c2cc(F)ccc2N1Cc1ccc(F)cc1
18	9.8	5.8	Cc1ccc(CN2C(=O)/C(=N\NC(=S)Nc3ccc(Cl)cc3)c3cc(Cl)ccc32)cc1
25	34	14	O=C1Nc2ccc(F)cc2/C1=N/NC(=S)Nc1ccc(Cl)cc1

Second part, the compound before the results:

SMILES	IC50 [1] [µM]	IC50 [2] [µM]	IC50 [3] [µM]
O=C1/C(=N\NC(=S)Nc2ccc(Cl)cc2)c2cc(Cl)ccc2N1Cc1ccc(F)cc1	50	103	48
O=C1/C(=N\NC(=S)Nc2ccc(Cl)cc2)c2cc(Br)ccc2N1Cc1ccc(F)cc1	61	196	48
Cc1ccc(CN2C(=O)/C(=N\NC(=S)Nc3ccc(Cl)cc3)c3cc(Br)ccc32)cc1	98	193	74
Cc1ccc(NC(=S)N/N=C2\C(=O)N(Cc3ccc(Cl)cc3)c3ccc(Br)cc32)cc1	≥ 500	≥ 500	288
Cc1ccc(CN2C(=O)/C(=N\NC(=S)Nc3ccc(C)cc3)c3cc(Br)ccc32)cc1	≥ 500	≥ 500	393
O=C1/C(=N\NC(=S)Nc2ccc(Cl)cc2)c2cc(Br)ccc2N1Cc1ccc(Cl)cc1	392	≥ 500	280
O=C1Nc2ccc(Cl)cc2/C1=N/NC(=S)Nc1ccc(Cl)cc1	61	108	64
O=C1Nc2cc(Cl)c(F)cc2/C1=N/NC(=S)Nc1ccc(Cl)cc1	48	69	43
Cc1ccc(NC(=S)N/N=C2\C(=O)Nc3cc(Cl)c(F)cc32)cc1	132	166	112
Cc1ccc(NC(=S)N/N=C2\C(=O)N(Cc3ccc(F)cc3)c3ccc(F)cc32)cc1	2.5	6.2	1.5
O=C1/C(=N\NC(=S)Nc2ccc(Cl)cc2)c2cc(Cl)ccc2N1Cc1ccc(Cl)cc1	68	124	58
Cc1ccc(NC(=S)N/N=C2\C(=O)Nc3ccc(F)cc32)cc1	4.8	8.2	3
N[C@@H](Cc1ccc(N(CCCl)CCCl)cc1)C(=O)O [MELPHALAN]			3.2
